Point of comparison: COc1ccc(C(=O)OCCCSc2ccnc3cc(Cl)ccc23)c(OC)c1OC [Compound 28, 3-[(7-Chloroquinolin-4-yl)sulfanyl]propyl-2,3,4-trimethoxybenzoate], melting point 84 °C. Against it:
- COc1ccc(C(=O)OCCSc2ccnc3cc(Cl)ccc23)cc1 [Compound 5, 2-[(7-Chloroquinolin-4-yl)sulfanyl]ethyl-4-methoxybenzoate] — higher, 116 to 118 °C
- COc1cccc(C(=O)OCCSc2ccnc3cc(Cl)ccc23)c1OC [Compound 6, 2-[(7-Chloroquinolin-4-yl)sulfanyl]ethyl 2,3-dimethoxybenzoate] — higher, 108 to 109 °C
- COc1ccc(C(=O)OCCSc2ccnc3cc(Cl)ccc23)c(OC)c1 [Compound 7, 2-[(7-Chloroquinolin-4-yl)sulfanyl]ethyl 2,4-dimethoxybenzoate] — higher, 107 to 108 °C
- COc1ccc(OC)c(C(=O)OCCSc2ccnc3cc(Cl)ccc23)c1 [Compound 8, 2-[(7-Chloroquinolin-4-yl)sulfanyl]ethyl-2,5-dimethoxybenzoate] — higher, 98 to 100 °C
- COc1cccc(OC)c1C(=O)OCCSc1ccnc2cc(Cl)ccc12 [Compound 9, 2-[(7-Chloroquinolin-4-yl)sulfanyl]ethyl 2,6-dimethoxybenzoate] — higher, 116 to 118 °C
- COc1ccc(C(=O)OCCSc2ccnc3cc(Cl)ccc23)cc1OC [Compound 10, 2-[(7-Chloroquinolin-4-yl)sulfanyl]ethyl 3,4-dimethoxybenzoate] — higher, 109 to 110 °C
- COc1cc(OC)cc(C(=O)OCCSc2ccnc3cc(Cl)ccc23)c1 [Compound 11, 2-[(7-Chloroquinolin-4-yl)sulfanyl]ethyl 3,5-dimethoxybenzoate] — higher, 100 to 102 °C
- COc1ccc(C(=O)OCCSc2ccnc3cc(Cl)ccc23)c(OC)c1OC [Compound 12, 2-[(7-Chloroquinolin-4-yl)sulfanyl]ethyl 2,3,4-trimethoxybenzoate] — higher, 94 to 96 °C
- COc1cc(OC)c(C(=O)OCCSc2ccnc3cc(Cl)ccc23)cc1OC [Compound 13, 2-[(7-Chloroquinolin-4-yl)sulfanyl]ethyl 2,4,5-trimethoxybenzoate] — higher, 134 to 135 °C
- COc1cc(C(=O)OCCSc2ccnc3cc(Cl)ccc23)cc(OC)c1OC [Compound 14, 2-[(7-Chloroquinolin-4-yl)sulfanyl]ethyl 3,4,5-trimethoxybenzoate] — higher, 139 to 140 °C
- O=C(OCCSc1ccnc2cc(Cl)ccc12)c1ccccc1Cl [Compound 15, 2-[(7-Chloroquinolin-4-yl)sulfanyl]ethyl 2-chlorobenzoate] — higher, 108 °C
- O=C(OCCSc1ccnc2cc(Cl)ccc12)c1cccc(Cl)c1 [Compound 16, 2-[(7-Chloroquinolin-4-yl)sulfanyl]ethyl 3-chlorobenzoate] — higher, 94 to 96 °C
- COc1ccc(C(=O)OCCSc2ccnc3cc(Cl)ccc23)cc1[N+](=O)[O-] [Compound 17, 2-[(7-Chloroquinolin-4-yl)sulfanyl]ethyl 4-methoxy-3-nitrobenzoate] — higher, 171 to 173 °C
- Cc1ccc([N+](=O)[O-])c(C(=O)OCCSc2ccnc3cc(Cl)ccc23)c1 [Compound 18, 2-[(7-Chloroquinolin-4-yl)sulfanyl]ethyl 5-methyl-2-nitrobenzoate] — higher, 93 to 95 °C
- Cc1cc(C)cc(C(=O)OCCSc2ccnc3cc(Cl)ccc23)c1 [Compound 19, 2-[(7-Chloroquinolin-4-yl)sulfanyl]ethyl 3,5-dimethylbenzoate] — higher, 102 to 104 °C
- O=C(OCCSc1ccnc2cc(Cl)ccc12)c1ccc(C(F)(F)F)cc1 [Compound 20, 2-[(7-Chloroquinolin-4-yl)sulfanyl]ethyl 4-(trifluoromethyl)benzoate] — higher, 134 to 136 °C
- CC(C)(C)c1ccc(C(=O)OCCSc2ccnc3cc(Cl)ccc23)cc1 [Compound 21, 2-[(7-Chloroquinolin-4-yl)sulfanyl]ethyl-4-tert-butylbenzoate] — higher, 120 to 122 °C
- COc1ccccc1C(=O)OCCSc1ccnc2cc(Cl)ccc12 [Compound 22, 2-[(7-Chloroquinolin-4-yl)sulfanyl]ethyl-2-methoxybenzoate] — higher, 98 to 99 °C
- COc1ccc(C(=O)OCCCSc2ccnc3cc(Cl)ccc23)cc1 [Compound 23, 3-[(7-Chloroquinolin-4-yl)sulfanyl]propyl-4-methoxybenzoate] — higher, 106 to 108 °C
- COc1cccc(C(=O)OCCCSc2ccnc3cc(Cl)ccc23)c1OC [Compound 24, 3-[(7-Chloroquinolin-4-yl)sulfanyl]propyl-2,3-dimethoxybenzoate] — lower, 78 to 80 °C
- COc1ccc(C(=O)OCCCSc2ccnc3cc(Cl)ccc23)c(OC)c1 [Compound 25, 3-[(7-Chloroquinolin-4-yl)sulfanyl]propyl-2,4-dimethoxybenzoate] — lower, 74 to 76 °C
- COc1ccc(OC)c(C(=O)OCCCSc2ccnc3cc(Cl)ccc23)c1 [Compound 26, 3-[(7-Chloroquinolin-4-yl)sulfanyl]propyl-2,5-dimethoxybenzoate] — higher, 97 to 98 °C
- COc1cc(OC)cc(C(=O)OCCCSc2ccnc3cc(Cl)ccc23)c1 [Compound 27, 3-[(7-Chloroquinolin-4-yl)sulfanyl]propyl-3,5-dimethoxybenzoate] — higher, 148 °C
- COc1cc(OC)c(C(=O)OCCCSc2ccnc3cc(Cl)ccc23)cc1OC [Compound 29, 3-[(7-Chloroquinolin-4-yl)sulfanyl]propyl-2,4,5-trimethoxybenzoate] — higher, 118 to 120 °C
- COc1cc(C(=O)OCCCSc2ccnc3cc(Cl)ccc23)cc(OC)c1OC [Compound 30, 3-[(7-Chloroquinolin-4-yl)sulfanyl]propyl-3,4,5-trimethoxybenzoate] — higher, 98 to 100 °C
- COc1ccccc1C(=O)OCCCSc1ccnc2cc(Cl)ccc12 [Compound 31, 3-[(7-Chloroquinolin-4-yl)sulfanyl]propyl-2-methoxybenzoate] — higher, 95 to 97 °C
- O=C(OCCCSc1ccnc2cc(Cl)ccc12)c1ccccc1Cl [Compound 32, 3-[(7-Chloroquinolin-4-yl)sulfanyl]propyl-2-chlorobenzoate] — higher, 100 to 102 °C
- O=C(OCCCSc1ccnc2cc(Cl)ccc12)c1cccc(Cl)c1 [Compound 33, 3-[(7-Chloroquinolin-4-yl)sulfanyl]propyl-3-chlorobenzoate] — higher, 96 to 98 °C
- O=C(OCCCSc1ccnc2cc(Cl)ccc12)c1ccc(Cl)cc1Cl [Compound 34, 3-[(7-Chloroquinolin-4-yl)sulfanyl]propyl-2,4-dichlorobenzoate] — higher, 88 to 89 °C
- COc1ccc(C(=O)OCCCSc2ccnc3cc(Cl)ccc23)cc1[N+](=O)[O-] [Compound 35, 3-[(7-Chloroquinolin-4-yl)sulfanyl]propyl-4-methoxy-3-nitrobenzoate] — higher, 138 to 140 °C
- Cc1ccc([N+](=O)[O-])c(C(=O)OCCCSc2ccnc3cc(Cl)ccc23)c1 [Compound 36, 3-[(7-Chloroquinolin-4-yl)sulfanyl]propyl-5-methyl-2-nitrobenzoate] — higher, 91 to 92 °C
- Cc1cc(C)cc(C(=O)OCCCSc2ccnc3cc(Cl)ccc23)c1 [Compound 37, 3-[(7-Chloroquinolin-4-yl)sulfanyl]propyl-3,5-dimethylbenzoate] — higher, 136 to 138 °C

— publication PMC9607427, “Novel 7-Chloro-(4-thioalkylquinoline) Derivatives: Synthesis and Antiproliferative Activity through Inducing Apoptosis and DNA/RNA Damage” (Pharmaceuticals, 2022)
